Legend:
Type in all cases: in vivo, rat
IL-1β mRNA = test: Real-time quantitative RT-PCR, IL-1β mRNA after CCI injury; settings: single-dose 30 mg kg^-1 i.p.; ipsilateral cortex, 6 h after injury; P<0.01
Protocol: (§1) A previously described CCI injury procedure was utilized (Chen et al., 2003). Male Sprague-Dawley rats, which have body weight of 250-300 g, were anaesthetized with sodium pentobarbital (i.p.; 50 mgkg^−1; Rhone Merieux, Harlow, UK) and placed in a stereotaxic frame. A 5-mm craniotomy was performed over the left parietal cortex, centered on the coronal suture and 3 mm lateral to the sagittal suture. Considerable care was taken to avoid injury to the underlying dura. Injury was made using a pneumatic piston with a rounded metal tip (2.5 mm diameter) that was angled 22.5° C. to the vertical so that the tip was perpendicular with the brain surface at the centre of the craniotomy. A velocity of 4 ms^−1 and a deformation depth 2 mm below the dura were used. […] Body temperature was monitored throughout the surgery by a rectal probe; temperature was maintained at 37.0±0.5° C. using a heated pad. […] Testing after injury was as follows: (1) real-time quantitative RT-PCR analysis for TNF-α, IL-1β and IL-6 mRNA expression at 6 h post-injury (n=7 for each group); (2) FluoroJade B (FJB) staining, TNF-α, IL-1β and IL-6 immunohistochemistry, as well as ELISA at 24 h post-injury to assess degenerative neurons and to determine cytokine expression (n=7 for each group). […] Approximately 50 mg tissue was collected from the ipsilateral (injured) hemisphere and processed for real-time quantitative RT-PCR. […]

TNF-α protein = test: ELISA, TNF-α protein after CCI injury; settings: single-dose 30 mg kg^-1 i.p.; ipsilateral cortex, 1 day post-injury; P<0.05
Protocol: A previously described CCI injury procedure was utilized (Chen et al., 2003). Male Sprague-Dawley rats, which have body weight of 250-300 g, were anaesthetized with sodium pentobarbital (i.p.; 50 mgkg^−1; Rhone Merieux, Harlow, UK) and placed in a stereotaxic frame. A 5-mm craniotomy was performed over the left parietal cortex, centered on the coronal suture and 3 mm lateral to the sagittal suture. Considerable care was taken to avoid injury to the underlying dura. Injury was made using a pneumatic piston with a rounded metal tip (2.5 mm diameter) that was angled 22.5° C. to the vertical so that the tip was perpendicular with the brain surface at the centre of the craniotomy. A velocity of 4 ms^−1 and a deformation depth 2 mm below the dura were used. […] Body temperature was monitored throughout the surgery by a rectal probe; temperature was maintained at 37.0±0.5° C. using a heated pad. […]
Single-dose baicalein (30 mg kg^−1) or a corresponding volume of vehicle was administered i.p. immediately following injury. […] Testing after injury was as follows: (1) real-time quantitative RT-PCR analysis for TNF-α, IL-1β and IL-6 mRNA expression at 6 h post-injury (n=7 for each group); (2) FluoroJade B (FJB) staining, TNF-α, IL-1β and IL-6 immunohistochemistry, as well as ELISA at 24 h post-injury to assess degenerative neurons and to determine cytokine expression (n=7 for each group). […]

TNF-α mRNA = test: Real-time quantitative RT-PCR, TNF-α mRNA after CCI injury; settings: single-dose 30 mg kg^-1 i.p.; ipsilateral cortex, 6 h after injury; P<0.05
Protocol: as §1

O=c1cc(-c2ccccc2)oc2cc(O)c(O)c(O)c12 [baicalein]
IL-1β mRNA level, % of level in vehicle-treated injured rats (IL-1β mRNA): 63%
TNF-α protein concentration, % of concentration in vehicle-treated rats (TNF-α protein): 54%
TNF-α mRNA level, % of level in vehicle-treated injured rats (TNF-α mRNA): 49%

— patent publication US20100222421A1, “Usage of Baicalein in the Preparation of a Pharmaceutical Composition for the Treatment of Traumatic Brain Injury” (National Defense Medical Center, priority 2009, published 2010)
